Patent US6956033B2, “3,4-dihydroisoquinoline derivative compound and a pharmaceutical agent comprising it as active ingredient” (Ono Pharmaceutical Co., Ltd., priority 2000, dated 2005)

What follows are molecules tested against T1, Human CB2 receptors (Homo sapiens, UniProt P34972) (assay: In vitro signaling assay: inhibition of forskolin-induced cAMP production in human CB2 receptor expressing CHO cells). Details: inhibition of 10 μM forskolin-induced cAMP production, human CB2 receptors expressed CHO cells, cAMP EIA.
T1 construct: expressed in transfected cells; host or cells: CHO cells
Assay type: cell-based
Experimental: It was confirmed by the following experiment that the compound of formula (I) of the present invention has CB2 receptor agonist activity.
Method for the Experiment:
Human CB2 receptors expressed CHO cells were used for the assays. Cells were dispersed seeded in 96-well plates in a density of 5×10^4 cells/well, and were subjected to experiment the next day. After removing the culture media 1 mM isobutylmethylxanthine (IBMX) solution was added, and cells were incubated for 10 minutes at room temperature. Next, a mixture of 10 μM forskolin and the compound of the present invention was added. After additional incubation for 15 minutes at room temperature, the culture supernatant was discarded and 200 μl of lysis reagent (attached to a cAMP EIA) was added. The amounts of cAMP of the lysate were determined by a cAMP EIA kit (Amersham) under conditions of the forskolin-induced cAMP production. The compound of the present invention was dissolved in DMSO and the solution was diluted to adjust the final concentration of DMSO to 0.1%. IC50 values were calculated from the inhibitory ratio of the compound of the present invention toward the amount of the forskolin-induced cAMP production. By the same experiment using CHO cells, it was confirmed that this inhibitory effect toward cAMP production by the compound was mediated via the human CB2 receptors.

T1 sequence (P34972 whole entry): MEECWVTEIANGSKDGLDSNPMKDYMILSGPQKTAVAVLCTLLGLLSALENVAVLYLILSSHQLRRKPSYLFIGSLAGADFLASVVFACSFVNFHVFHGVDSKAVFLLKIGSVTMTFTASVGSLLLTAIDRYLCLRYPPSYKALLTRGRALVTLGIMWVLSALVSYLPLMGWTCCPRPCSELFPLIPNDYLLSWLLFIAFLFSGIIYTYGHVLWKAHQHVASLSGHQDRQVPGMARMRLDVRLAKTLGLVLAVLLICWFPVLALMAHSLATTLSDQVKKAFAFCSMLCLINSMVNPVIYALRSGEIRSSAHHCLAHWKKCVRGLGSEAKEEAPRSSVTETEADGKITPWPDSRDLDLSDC

How did the IC50 turn out when `CC1(C)Cc2ccccc2/C(=C/C(=O)C2CCCCCC2)N1` [1(11), (Z)-2-(3,3-dimethyl-3,4-dihydro-(2H)-isoquinolin-1-ylidene)-1-cycloheptylethan-1-one] was run?
The IC50 was 0.4 nM.

How did the IC50 turn out when `O=C(/C=C1\NC2(CCOCC2)Cc2ccccc21)c1ccccc1` [1(33), (Z)-2-(spiro[3,4-dihydro-(2H)-isoquinolin-3,4′-3,4,5,6-tetrahydropyran]-1-ylidene)-1-phenylethan-1-one] was run?
The IC50 was 0.8 nM.

`CC1(C)Cc2ccccc2/C(=C/C(=O)C2CCCCC2)N1` [compound 1] was tested. Which IC50 did it give?
The IC50 was 2.4 nM.
